The test system of test [1] is TEAD response element (TRE) luciferase reporter in MCF-7 cell lines. The test is described as follows: TEAD response element (TRE) reporter assay. Type of test: cell-based. The conditions noted are these: Homo sapiens, MCF7; 0.2 μM compound, 24 hours, MCF-7 TEAD reporter cells, relative to vehicle (1% DMSO). As for the experimental part: MCF-7 cell lines injected with TEAD reporter genes expressing firefly luciferase upon activation of TEAD response element (TRE) were obtained from BPS bioscience (#60618). The TEAD reporter genes were injected to stable expression in the MCF-7 cell lines.
TEAD reporter genes expressing firefly luciferase upon activation of TEAD response element (TRE) were injected with TEAD reporter genes to ensure stable expression of the TEAD reporter genes. Here, the TEAD reporter genes expresses firefly luciferase upon activation of TEAD response element (TRE). The cells were cultured in a cell-only culture medium (BPS bioscience) to which 10 μg/mL insulin (Sigma) was added at 37° C. and 5% CO2.
In 24 hours after dispensing said cells into a 96-well plate, each of the compounds of the examples or a vehicle solvent (final 1% DMSO) was treated by being diluted with a serum-free culture medium so that the final concentration became 0.2 μM. In 24 hours after said treatment, a luciferase assay working solution (ONE-Step Luciferase assay reagent; BPS bioscience) containing a luciferase substrate was treated in each well at 100 μL, and then left in a shaker for 15 minutes to be well mixed. Then, a degree of luminescence generated by luciferase expressed according to TEAD activation was measured by a microplate reader (TECAN). A relative activity of luciferase […], and the results are shown in table 8 below.

Test [2] addresses T1, recombinant GST-TEAD1 proteins (209 to 426 a.a.) (Homo sapiens, UniProt P28347).
T1 construct: recombinant GST-TEAD1 proteins (209 to 426 a.a.)
The test is described as follows: Evaluation of palmitoylation of TEAD protein. The conditions noted are these: 5 μM compound, 15 minutes preincubation, 3 μM alkyne palmitoyl-CoA 30 minutes, pH 6.4, vs DMSO control. The class given is biochemical. As for the experimental part:
Each compound corresponding to a concentration of 5 μM was added to recombinant GST-TEAD1 proteins (209 to 426 a.a.) and cultured for 15 minutes. For an autopalmitoylation reaction of proteins after culturing, 3 μM alkyne palmitoyl-CoA (Cayman chemical) and 50 mM MES buffer (pH 6.4) were added and cultured for 30 minutes, after which 1% of sodium dodecyl sulfate (SDS) was added to stop the reaction. After that, biotinylation was performed through a CLICK (Click chemistry tools) reaction, and then a protein solution was concentrated to prepare a sample.
Analysis of the sample was performed using SDS-PAGE and streptavidin HRP (Thermo scientific). The resulting values were quantified using an Image J (NIH). For the intensity of the band obtained from Streptavidin blot, a palmitoylation inhibitory activity was analyzed based on the control group (DMSO). The normalization of each sample was performed using an anti-GST (91G1) (cell signaling) antibody.

Some results are limits rather than exact numbers.

T1 sequence (P28347 209-426): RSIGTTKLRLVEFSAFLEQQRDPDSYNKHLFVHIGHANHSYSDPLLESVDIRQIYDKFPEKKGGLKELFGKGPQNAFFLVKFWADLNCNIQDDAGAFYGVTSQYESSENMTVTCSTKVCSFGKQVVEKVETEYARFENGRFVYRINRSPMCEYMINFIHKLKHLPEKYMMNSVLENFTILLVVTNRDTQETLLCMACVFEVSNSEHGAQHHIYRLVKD

As to `C=CC(=O)Nc1cnc2c(c1)c(C)cn2Cc1ccc(C(F)(F)F)s1` [Compound 63, N-(3-methyl-1-((5-(trifluoromethyl)thiophen-2-yl)methyl)-1H-pyrrolo[2,3-b]pyridin-5-yl)acrylamide], the inhibition at 0.2 µM in test [1] was in the range of 30 to 50%. Further, the inhibition at 5 µM in test [2] lay within 40 to 80%.
For `C=CC(=O)Nc1cnc2c(c1)c(C)nn2-c1ccc(C(F)(F)F)c(OC)c1` [Compound 64, N-(1-(3-methoxy-4-(trifluoromethyl)phenyl)-3-methyl-1H-pyrazolo[3,4-b]pyridin-5-yl)acrylamide], in that order: > 50% and 40 to 80%.
For `C=CC(=O)Nc1cnc2c(c1)c(C)nn2Cc1ccc(C(F)F)cc1` [Compound 67, N-(1-(4-(difluoromethyl)benzyl)-3-methyl-1H-pyrazolo[3,4-b]pyridin-5-yl)acrylamide], in that order: 30 to 50% and < 40%.
For `C=CC(=O)Nc1cnc2c(c1)c(C)nn2C1=CCC(C(F)(F)F)CC1` (centres unmarked) [Compound 68, N-(3-methyl-1-(4-(trifluoromethyl)cyclohex-1-en-1-yl)-1H-pyrazolo[3,4-b]pyridin-5-yl)acrylamide] the same measures were > 50% and 40 to 80%.
Consider `C=CC(=O)Nc1cnc2c(c1)c(C)nn2-c1ccc(C(F)F)cc1` [Compound 69, N-(1-(4-(difluoromethyl)phenyl)-3-methyl-1H-pyrazolo[3,4-b]pyridin-5-yl)acrylamide], for which, in test [1], the inhibition at 0.2 µM lay in the range of 30 to 50%. The inhibition at 5 µM in test [2] is 40 to 80%.
For `C=CC(=O)Nc1cnc2c(c1)c(C)nn2-c1ccc(F)cc1` [Compound 70, N-(1-(4-fluorophenyl)-3-methyl-1H-pyrazolo[3,4-b]pyridin-5-yl)acrylamide] the same measures were 30 to 50% and < 40%.
For `C=CC(=O)Nc1cnc2c(c1)c(C)cn2Cc1ccc(C(F)F)cc1` [Compound 71, N-(1-(4-(difluoromethyl)benzyl)-3-methyl-1H-pyrrolo[2,3-b]pyridin-5-yl)acrylamide] the same measures were 30 to 50% and < 40%.
`C=CC(=O)Nc1cnc2c(c1)c(C)nn2-c1ccc(C(F)(F)F)c(Cl)c1` [Compound 72, N-(1-(3-chloro-4-(trifluoromethyl)phenyl)-3-methyl-1H-pyrazolo[3,4-b]pyridin-5-yl)acrylamide] displayed an inhibition at 0.2 µM in test [1] of 30 to 50%. Also, the inhibition at 5 µM in test [2] is 40 to 80%.
For `C=CC(=O)Nc1cnc2c(c1)c(C)nn2-c1cccc(OC)c1` [Compound 73, N-(1-(3-methoxyphenyl)-3-methyl-1H-pyrazolo[3,4-b]pyridin-5-yl)acrylamide], in that order: < 30% and < 40%.
For `C=CC(=O)Nc1cnc2c(c1)c(C)nn2-c1ccc(C(F)(F)F)c(C)c1` [Compound 74, N-(3-methyl-1-(3-methyl-4-(trifluoromethyl)phenyl)-1H-pyrazolo[3,4-b]pyridin-5-yl)acrylamide], in that order: > 50% and 40 to 80%.
For `C=CC(=O)Nc1cnc2c(c1)c(C)nn2-c1ccccc1C` [Compound 75, N-(3-methyl-1-(o-tolyl)-1H-pyrazolo[3,4-b]pyridin-5-yl)acrylamide], in that order: < 30% and 40 to 80%.
In test [1], `C=CC(=O)Nc1cnc2c(c1)c(C)nn2-c1cc(F)cc(F)c1` [Compound 76, N-(1-(3,5-difluorophenyl)-3-methyl-1H-pyrazolo[3,4-b]pyridin-5-yl)acrylamide] came in with an inhibition at 0.2 µM of 30 to 50%. In test [2], the inhibition at 5 µM is 40 to 80%.
For `C=CC(=O)Nc1cnc2c(c1)c(C)nn2-c1ccc(OCC(C)C)cc1` [Compound 78, N-(1-(4-isobutoxyphenyl)-3-methyl-1H-pyrazolo[3,4-b]pyridin-5-yl)acrylamide], in that order: < 30% and 40 to 80%.

Values taken from patent US20250171451A1, “NOVEL HETEROCYCLIC COMPOUND AND PHARMACEUTICAL COMPOSITION COMPRISING SAME” (Samjin Pharmaceutical Co., Ltd., priority 2022, published 2025).
